# Measurements as given in PubChem BioAssay (NCI).
# Where “and” joins values, the source holds several entries; their conditions need not be identical. Equal values may be shown once.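 The compound was tested at five concentrations on cells cultured in 96-well plates, with a 48-hour exposure period. GI50 is the concentration that inhibits growth by half. TGI: concentration producing complete growth inhibition.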
# Legend:
# Assay in all cases: DTP human tumour cell line panel, 48 h
# 786-0 renal = system: 786-0 renal
# BT-549 breast = system: BT-549 breast
# NCI-H23 lung = system: NCI-H23 lung
# OVCAR-3 ovarian = system: OVCAR-3 ovarian
# SF-295 CNS = system: SF-295 CNS
# SK-MEL-28 melanoma = system: SK-MEL-28 melanoma
# T-47D breast = system: T-47D breast
# UACC-257 melanoma = system: UACC-257 melanoma
Structure (SMILES),GI50 (786-0 renal) [µM],TGI (786-0 renal),GI50 (BT-549 breast) [µM],TGI (BT-549 breast),GI50 (NCI-H23 lung) [µM],TGI (NCI-H23 lung),GI50 (OVCAR-3 ovarian) [µM],TGI (OVCAR-3 ovarian),GI50 (SF-295 CNS) [µM],TGI (SF-295 CNS),GI50 (SK-MEL-28 melanoma) [µM],TGI (SK-MEL-28 melanoma),GI50 (T-47D breast) [µM],TGI (T-47D breast) [µM],GI50 (UACC-257 melanoma) [µM],TGI (UACC-257 melanoma)
O=C1NC(=O)C(=Cc2cn(Cc3ccccc3)c3ccccc23)C(=O)N1,17.1,33 µM,15.4,50.1 µM,14.1,34.2 µM,5.75,19.4 µM,1.39,34.5 µM,15,30.6 µM,4.09,20,7.07,35.1 µM
O=c1cc(-c2ccccc2)[nH]c2c1CCCC2,14.7,> 100 µM,21.5,> 100 µM,3.39,> 100 µM,1.81,5.02 µM,1.43,7.61 µM,> 100,> 100 µM,,,67,> 100 µM
COc1ccc2c(c1O)[C@@]13CCCC=C1[C@@H](C2)[N+](C)(C)CC3,,> 100 µM,,> 100 µM,,> 100 µM,,> 100 µM,,> 100 µM,,> 100 µM,,> 100,,> 100 µM
CN1CCN(CCCOc2ccc3nc(Nc4ccc(F)c(F)c4)ccc3c2)CC1,1.62,3.3 µM,2.34,9.86 µM,3.15,13.2 µM,2.11,6.37 µM,1.61,3.65 µM,1.56,3.2 µM,1.88,8.79,1.76,3.27 µM
CN1CCN(Cc2ccc(NC(=O)c3[nH]ncc3Nc3ncnc4[nH]ccc34)cc2)CC1,0.301,2 µM,0.297,1.07 µM,0.295,1.08 µM,0.255,0.797 µM,0.211,5.01 µM,0.411,4.24 µM,0.365,18.7,0.531,17.8 µM
COc1ccc2nc(C)cc(Sc3nc4ccccc4s3)c2c1,0.562,3.28 µM,1.28,4.45 µM,1.78,7.56 µM,1.47,3.3 µM,2.48,13.2 µM,2.45,9.89 µM,0.881,11,4.25,25.5 µM
O=C1CC(c2cccc(Cl)c2)Oc2ccccc21 (stereo not drawn),,39.5 µM,,,,24.3 µM,,,,53.6 µM,,42.2 µM,,91.7,,32.2 µM
C=C(C)[C@@H]1CCc2c(O)c(O)c(=O)cc(C)c2C1,,> 100 µM,,> 100 µM,,48.9 µM,,,,> 100 µM,,> 77.2 µM,,23.7,,> 100 µM
O=C1C=CC(=O)c2c1ccc1c3ccccc3n(Cc3ccccc3)c21,,33.1 µM,,43.9 µM,,42.7 µM,,33 µM,,> 100 µM,,54 µM,,64.6,,40.9 µM
NC1=NC(SCc2ccccc2CCl)c2ncn(Cc3ccccc3CCl)c2N1 (stereo not drawn),1.85,3.97 µM,1.7,3.35 µM,1.61,3.45 µM,1.32,2.99 µM,1.98,5 µM,2.28,6.97 µM,1.54,3.34,1.54,3.07 µM
COc1cc(C)cc(C(=O)/C=C/c2ccccc2)c1O,,37.3 µM,,37.8 µM,,32.4 µM,,47.8 µM,,39.4 µM,,50.7 µM,,44.6,,37.7 µM
COc1cc(/C=C/C(=O)CC(=O)/C=C/c2cc(OC)c(O)c(OC)c2)cc(OC)c1O,38.6,25 µM and > 100 µM,13.4,25 µM and 34.4 µM,12.7,25 µM and 35.7 µM,18.6,17.3 µM and > 100 µM,32.3,25 µM and > 100 µM,14.1,21.5 µM and 57.8 µM,,21.5,23.5,25 µM and > 100 µM
C=C(C(=O)OC)[C@@H]1CC2OC1C(=O)C(C)CCC/C(C)=C/CC[C@@]2(C)O (stereo partly drawn),15.2,31.5 µM,25.2,55.7 µM,14,27.9 µM,15.9,48.4 µM,39.5,> 100 µM,25.5,77.3 µM,59.8,> 100,23.3,76.3 µM
CC12CCC(=O)C(O1)C1C(=O)c3ccc4c(ccc5ccccc54)c3C(=O)C12 (stereo not drawn),2.35,6.01 µM,6.69,13.2 µM,4.15,8.35 µM,1.2,2.64 µM,1.46,3 µM,29.1,> 100 µM,2.26,> 28.5,3.11,8.15 µM
CC(C)=Cc1cc(CCC/C(C)=C/Cc2c(O)cc(C)c(C(=O)O)c2O)co1,,> 100 µM,,> 100 µM,,> 100 µM,,> 100 µM,,> 100 µM,,> 100 µM,,> 100,,> 100 µM
NC(N)=NC(N)=Nc1ccc(C(=O)O)cc1,,> 100 µM,,> 100 µM,,> 100 µM,,> 100 µM,,> 100 µM,,> 100 µM,,> 100,,> 100 µM
CC1CCCC(C#N)(NOC2=NCCN2)C1 (stereo not drawn),> 100,> 100 µM,19,42.3 µM,35.3,> 100 µM,43,> 100 µM,31,> 100 µM,> 100,> 100 µM,,,97.5,> 100 µM
COc1cc(F)c(F)cc1C(=O)c1cnc(NC2CCN(S(C)(=O)=O)CC2)nc1N,5.93,> 25 µM,4.29,18.6 µM,2.62,> 18 µM,4.48,15.7 µM,2.9,23.7 µM,4.08,> 25 µM,4.58,23.8,3.56,> 22.7 µM

Structure (SMILES),GI50 (786-0 renal) [µM],TGI (786-0 renal),GI50 (BT-549 breast) [µM],TGI (BT-549 breast),GI50 (NCI-H23 lung) [µM],TGI (NCI-H23 lung),GI50 (OVCAR-3 ovarian) [µM],TGI (OVCAR-3 ovarian),GI50 (SF-295 CNS) [µM],TGI (SF-295 CNS),GI50 (SK-MEL-28 melanoma) [µM],TGI (SK-MEL-28 melanoma),GI50 (T-47D breast) [µM],TGI (T-47D breast) [µM],GI50 (UACC-257 melanoma) [µM],TGI (UACC-257 melanoma)
O=C1CS/C(=N/S(=O)(=O)c2ccc(N3N=C4c5ccccc5CC4C3c3cccs3)cc2)N1C(=O)c1ccccc1 (stereo not drawn),48.8,> 100 µM,33.5,> 100 µM,25.1,61.1 µM,59.2,> 100 µM,31.7,> 100 µM,> 100,> 100 µM,> 100,> 100,> 100,> 100 µM
O=C(O)COc1ccc(OCC(=O)O)cc1,0.456,3.62 µM,1.47,11.6 µM,0.513,3.09 µM,2.5,36.3 µM,0.445,11.3 µM,3.36,17 µM,0.449,9.31,2.53,18.5 µM
Cc1nn(C)c2ncnc(N/N=C/c3cccc(O)c3O)c12,1.22,11.7 µM,0.602,> 100 µM,0.774,> 68.2 µM,0.356,> 100 µM,2.73,49.9 µM,0.455,> 100 µM,3.25,> 100,1.38,> 37.1 µM
COc1cc(Cl)c(CC(=O)c2c[nH]c3ccccc23)cc1OC,,> 100 µM,,> 100 µM,,> 100 µM,,> 100 µM,,> 68.3 µM,,> 100 µM,,> 100,,> 100 µM
CCCCC#Cc1c(I)n(C2OC(CO[Si](C)(C)C(C)(C)C)C3OC(C)(C)OC32)c(=O)n(C(=O)c2ccccc2)c1=O (stereo not drawn),3.25,14.5 µM,8.98,20.4 µM,9.44,27.3 µM,1.47,2.82 µM,12.7,27.3 µM,6.94,22.5 µM,4.14,19.7,16.4,30.7 µM
CC(C)C[C@H](NC(=O)Cn1cccc(CNC(=O)c2ccccc2)c1=O)B(O)O,1.06,> 61.5 µM,0.162,1.54 µM,1.05,> 100 µM,0.214,0.674 µM,0.442,2.24 µM,0.207,13 µM,0.335,2.82,0.505,3.53 µM
O=C1OCC2=C1C(c1cccc(C(F)(F)F)c1)c1cc3c(cc1N2CCO)OCCO3 (stereo not drawn),1.81,> 33.3 µM,1.81,> 33.3 µM,1.78,> 33.3 µM,1.24,> 33.3 µM,0.895,> 33.3 µM,1.71,> 33.3 µM,,,> 33.3,> 33.3 µM
CC(C)(C)c1ccc(C2CC(=O)C3=C(C2)Nc2ccccc2N(C(=O)c2ccccc2Cl)C3c2ccc(F)cc2)cc1 (stereo not drawn),> 100,> 100 µM,> 100,> 100 µM,> 100,> 100 µM,> 100,> 100 µM,> 100,> 100 µM,> 100,> 100 µM,5.57,> 100,> 100,> 100 µM
CC(=O)c1c[nH]c2ccc(-c3ccnc(Nc4ccc(NC(=O)C5CCCC5)c(CN5CCOCC5)c4)n3)cc12,0.031,2.63 µM,0.0328,0.904 µM,0.0344,0.364 µM,0.0267,0.678 µM,0.0397,0.611 µM,0.0404,0.27 µM,0.0379,,0.0349,0.175 µM
C=CC1C(CC2OC(CO)C(O)C(O)C2O)OC=C2C(=O)OCCC21O (stereo not drawn),2.67,17.5 µM,,,24.9,61.9 µM,12.4,27.6 µM,23.5,62.5 µM,0.116,19.2 µM,32,> 100,20.4,50.9 µM
CCOC(=O)c1c(-c2ccccc2)[n+](=O)c2cc(F)c(F)cc2n1[O-],2.01,3.64 µM,1.6,3.26 µM,1.42,3.13 µM,1.23,2.61 µM,2.08,3.84 µM,1.73,3.34 µM,,,2.09,3.88 µM
COc1cc(C2c3cc4c(cc3OC(O)C2C)OCO4)cc(OC)c1OC (stereo not drawn),,> 100 µM,,> 59.2 µM,,,,5.25 µM,,> 48.8 µM,,> 100 µM,,,,> 100 µM
CN1CCN(C(=O)c2ccc(NC(=O)Nc3ccc(-c4nc(N5CCOCC5)c5cccn5n4)cc3)cc2)CC1,0.0632,1.11 µM,0.104,0.789 µM,0.0711,19 µM,,,0.0322,0.239 µM,0.0465,0.77 µM,0.0126,0.0567,0.102,0.576 µM
O=c1[nH]c2ccccc2c(O)c1/C=N/C(=S)NC1CCCCC1,,> 100 µM,,> 100 µM,,> 100 µM,,> 100 µM,,> 100 µM,,,,> 100,,> 100 µM
CC(C)[P+](c1ccccc1)(c1ccccc1)c1ccccc1,32.5,> 100 µM,5.55,> 100 µM,,,4.49,> 100 µM,7.41,36.6 µM,21.2,> 100 µM,,,1.07,7.06 µM
CC12OC(C(=O)C13CC3)C1C(=O)c3c(O)ccc(O)c3C(=O)C12 (stereo not drawn),2.19,6.56 µM,22.1,51.8 µM,14.4,31.1 µM,,,,,24.6,78.7 µM,11.6,32,13.9,29.1 µM
COC(=O)c1onc(C2OC(C)(C)OC2C(O)COC(c2ccccc2)(c2ccccc2)c2ccccc2)c1C(=O)OC (stereo not drawn),,> 100 µM,,,,> 100 µM,,> 100 µM,,,,> 100 µM,,> 100,,
CCc1ccc2oc(=O)ccc2c1,,> 100 µM,,> 100 µM,,> 100 µM,,> 100 µM,,> 100 µM,,> 100 µM,,,,> 100 µM
